Results published in US20240383875A1, “Benzimidazole Pyridine Derivatives” (Hoffmann-La Roche Inc., priority 2022, published 2024).

What was measured:
Assay type in all cases: biochemical
SIK1 = SIK1 (Homo sapiens, UniProt P57059); test: Enzymatic activity assay SIK1, RapidFire mass spectrometry (phosphorylation of CHK-peptide); conditions: RapidFire MS, inhibition of SIK1; read-out: SIK1 RF IC50
Procedure: (§1) Assay description SIK1-3, RapidFire:
(§2) In the presence of SIK2 (resp. SIK1 or SIK3) and ATP the CHK-peptide ([…] with C-terminal arginine amide modification) were phosphorylated at one of the four feasible serine's. Only one phosphorylation is observed under the assay conditions. 60 nl of each compound dilution series (12 point; dilution factor 3, generally 30 μM to 170 pM) in DMSO were transferred by acoustic dispensing to the assay plate and 30 min pre-incubated (ambient temperature) after the addition of 5 μl SIK1 (5 nM) resp. 5 μl SIK2 (0.5 nM) or 7 μl SIK3 (1.5 nM) in assay-buffer (12.5 mM HEPES (pH 7.0), 10 mM magnesium acetate, 0.005% BSA). 10 μM CHK-peptide solution and 5 μl 100 μM ATP for SIK1 & SIK2 resp. 3 μl for SIK3 in assay-buffer were added and incubated ambient for 45 min. 40 μl 0.125% formic acid in water were added to quench the reaction. RapidFire (RF) Mass Spectrometry was utilized for data generation as described below. The multiple charged species (3-5 charges) for the phosphorylated and non-phosphorylated form measured by MRM (Multiple Reaction Monitoring; API5000 or 6500+) or EIC (Extracted Ion Current; QToF) were summed up and the ratio calculated (sum phosphorylated species/sum all species) for data evaluation. Normalization was performed by Genedata software based on the non-inhibition control DMSO and the commercially available SIK inhibitor @ 1 μM YKL-05-099 (CAS number 1936529-65-5). The results of the assay are expressed in half-maximal inhibitory concentrations (IC50s) and are summarized below in Table 1.
(§3) Samples were aspirated by vacuum for max. 600 ms and loaded to C4-cartridge (Agilent; #G9203A) for 3000 ms@1.5 ml/min with 0.1% formic acid in water. Afterwards samples were transferred to the APT5000 (APT6500+) or QToF mass spectrometer for 4000 ms@1.25 ml/min with 90% acetonitrile; 10% water; 0.007% TFA; 0.093 formic acid. The cartridge was reconditioned for additional 500 ms with 0.1% formic acid in water
(§4) All MS analyses using the following MS-setup in MRM mode: Electrospray positive; Ion Spray Voltage: 4000V; Temperature: 550° C.; Collision Gas: 5; Curtain Gas: 15; Gas1: 40; Gas 2: 42; EP: 10
(§5) MS-Setup Agilent QToF 6545
(§6) All MS analyses using the following MS-setup in Mode MS: Dual AJS Electrospray positive; VCap: 3000V; Drying & Sheath gas: 340° C.@81/min; Nebulizer: 60 psig; Nozzle Voltage: 2000V; Fragmentor: 130V; Skimmer: 35V; Oct1 RF Vpp: 700V; Ref masses on@5spectra/s

SIK2 = SIK2 (Homo sapiens, UniProt Q9H0K1); test: Enzymatic activity assay SIK2, RapidFire mass spectrometry (phosphorylation of CHK-peptide); conditions: RapidFire MS, inhibition of SIK2; read-out: SIK2 RF IC50
Procedure: as §1
as §2, with “Only one phosphorylation is observed under the assay conditions. 60 nl of each compound dilution series (12 point; dilution factor 3, generally 30 μM to 170 pM) in DMSO were transferred by acoustic dispensing to the assay plate and 30 min pre-incubated (ambient temperature) after the addition of 5 μl SIK1 (5 nM) resp.” left out, “1936529-65-5).” for “1936529-65-5). The results of the assay are expressed in half-maximal inhibitory concentrations (IC50s) and are summarized below in Table 1.”
as §3, §4, §5, §6

SIK3 = SIK3 (Homo sapiens, UniProt Q9Y2K2); test: Enzymatic activity assay SIK3, RapidFire mass spectrometry (phosphorylation of CHK-peptide); conditions: RapidFire MS, inhibition of SIK3; read-out: SIK3 RF IC50
Procedure: as §1, §2, §3, §4, §5, §6

SIK1, sequence (P57059 whole entry): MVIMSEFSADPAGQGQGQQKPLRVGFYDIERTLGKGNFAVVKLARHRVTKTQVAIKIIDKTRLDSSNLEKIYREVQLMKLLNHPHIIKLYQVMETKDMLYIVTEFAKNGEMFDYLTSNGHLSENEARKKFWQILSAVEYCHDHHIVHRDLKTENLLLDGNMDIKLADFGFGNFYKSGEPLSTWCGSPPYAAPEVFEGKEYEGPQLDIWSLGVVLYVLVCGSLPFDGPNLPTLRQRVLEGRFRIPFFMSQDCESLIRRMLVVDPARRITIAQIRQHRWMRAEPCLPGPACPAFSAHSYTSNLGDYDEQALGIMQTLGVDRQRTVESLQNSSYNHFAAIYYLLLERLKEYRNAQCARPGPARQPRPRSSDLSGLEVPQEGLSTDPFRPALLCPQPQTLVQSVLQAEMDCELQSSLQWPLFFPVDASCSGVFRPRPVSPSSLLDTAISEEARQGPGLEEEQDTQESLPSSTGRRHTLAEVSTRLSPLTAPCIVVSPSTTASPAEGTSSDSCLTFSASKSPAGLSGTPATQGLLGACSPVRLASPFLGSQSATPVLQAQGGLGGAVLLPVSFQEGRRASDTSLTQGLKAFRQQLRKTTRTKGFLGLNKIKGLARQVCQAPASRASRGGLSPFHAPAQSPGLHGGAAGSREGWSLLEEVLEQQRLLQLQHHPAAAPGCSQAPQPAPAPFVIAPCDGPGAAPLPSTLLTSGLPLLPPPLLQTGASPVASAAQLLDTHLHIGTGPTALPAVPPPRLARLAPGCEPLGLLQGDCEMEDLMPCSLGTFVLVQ
SIK2, sequence (Q9H0K1 whole entry): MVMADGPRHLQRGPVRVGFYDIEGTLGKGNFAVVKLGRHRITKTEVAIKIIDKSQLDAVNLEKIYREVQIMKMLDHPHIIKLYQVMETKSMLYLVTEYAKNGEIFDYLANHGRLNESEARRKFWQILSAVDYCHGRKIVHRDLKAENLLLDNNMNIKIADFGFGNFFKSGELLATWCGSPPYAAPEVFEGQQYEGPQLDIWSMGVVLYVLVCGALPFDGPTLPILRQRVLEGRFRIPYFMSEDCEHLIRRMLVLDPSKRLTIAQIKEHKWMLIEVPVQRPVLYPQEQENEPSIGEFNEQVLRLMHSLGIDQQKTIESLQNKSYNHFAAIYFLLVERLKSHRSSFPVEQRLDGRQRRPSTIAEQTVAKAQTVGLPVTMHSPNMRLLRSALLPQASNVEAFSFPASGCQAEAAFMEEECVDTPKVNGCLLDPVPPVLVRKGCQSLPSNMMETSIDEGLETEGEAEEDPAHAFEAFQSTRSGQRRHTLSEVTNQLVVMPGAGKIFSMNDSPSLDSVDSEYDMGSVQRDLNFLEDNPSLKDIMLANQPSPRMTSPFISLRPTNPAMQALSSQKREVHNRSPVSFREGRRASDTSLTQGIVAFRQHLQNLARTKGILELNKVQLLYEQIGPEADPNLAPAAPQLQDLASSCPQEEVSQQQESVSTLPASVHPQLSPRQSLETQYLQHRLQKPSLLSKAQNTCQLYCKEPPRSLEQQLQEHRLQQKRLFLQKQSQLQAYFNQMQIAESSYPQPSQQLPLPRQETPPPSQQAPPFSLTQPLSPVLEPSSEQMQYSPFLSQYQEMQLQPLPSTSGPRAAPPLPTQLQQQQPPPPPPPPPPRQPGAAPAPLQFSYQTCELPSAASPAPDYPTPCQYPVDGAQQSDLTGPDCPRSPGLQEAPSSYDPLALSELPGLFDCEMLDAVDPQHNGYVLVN
SIK3, sequence (Q9Y2K2 whole entry): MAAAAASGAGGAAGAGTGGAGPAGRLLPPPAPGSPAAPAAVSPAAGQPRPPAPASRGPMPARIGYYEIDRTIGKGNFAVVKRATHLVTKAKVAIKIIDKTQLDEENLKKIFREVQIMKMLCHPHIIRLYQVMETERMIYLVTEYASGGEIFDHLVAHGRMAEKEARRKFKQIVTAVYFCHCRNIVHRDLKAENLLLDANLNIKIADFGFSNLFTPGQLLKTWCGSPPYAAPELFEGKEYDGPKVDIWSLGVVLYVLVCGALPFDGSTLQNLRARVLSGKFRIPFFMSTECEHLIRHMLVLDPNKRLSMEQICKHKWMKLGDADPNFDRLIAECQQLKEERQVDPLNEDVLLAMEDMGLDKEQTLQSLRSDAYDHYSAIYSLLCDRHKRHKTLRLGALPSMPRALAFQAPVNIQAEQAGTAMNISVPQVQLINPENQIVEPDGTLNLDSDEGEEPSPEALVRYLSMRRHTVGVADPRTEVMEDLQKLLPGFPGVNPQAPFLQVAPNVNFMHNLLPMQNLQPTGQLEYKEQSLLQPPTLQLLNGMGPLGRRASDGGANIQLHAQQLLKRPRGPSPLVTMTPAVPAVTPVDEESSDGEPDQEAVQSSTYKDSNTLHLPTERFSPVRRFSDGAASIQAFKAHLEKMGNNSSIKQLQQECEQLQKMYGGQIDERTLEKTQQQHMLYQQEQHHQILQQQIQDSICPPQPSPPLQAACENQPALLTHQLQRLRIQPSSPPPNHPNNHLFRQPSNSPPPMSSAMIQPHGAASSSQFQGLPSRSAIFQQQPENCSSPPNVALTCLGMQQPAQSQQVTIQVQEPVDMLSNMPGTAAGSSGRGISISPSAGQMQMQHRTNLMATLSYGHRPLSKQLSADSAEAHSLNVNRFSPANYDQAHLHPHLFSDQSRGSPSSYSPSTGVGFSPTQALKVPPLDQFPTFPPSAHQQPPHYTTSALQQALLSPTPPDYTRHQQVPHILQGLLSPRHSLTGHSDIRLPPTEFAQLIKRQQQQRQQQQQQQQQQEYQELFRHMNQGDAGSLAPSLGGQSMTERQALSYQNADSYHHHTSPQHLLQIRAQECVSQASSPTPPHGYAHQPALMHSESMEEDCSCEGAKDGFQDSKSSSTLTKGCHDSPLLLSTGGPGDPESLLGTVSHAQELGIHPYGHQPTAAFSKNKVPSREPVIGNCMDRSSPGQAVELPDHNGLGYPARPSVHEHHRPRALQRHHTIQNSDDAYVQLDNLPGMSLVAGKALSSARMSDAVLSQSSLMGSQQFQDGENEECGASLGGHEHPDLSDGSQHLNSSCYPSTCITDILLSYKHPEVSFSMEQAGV

Compound | IC50 (SIK1) [nM] | IC50 (SIK2) [nM] | IC50 (SIK3) [nM]
Cc1ccc(Nc2cc3c(cc2CC2COC2)ncn3-c2ccc(C(C)O)c(-n3nc(OC(F)F)cc3C)n2)nn1 (stereo not drawn) [Example 406, 1-[2-[3-(difluoromethoxy)-5-methyl-pyrazol-1-yl]-6-[6-[(6-methylpyridazin-3-yl)amino]-5-(oxetan-3-ylmethyl)benzimidazol-1-yl]-3-pyridyl]ethanol] | 47 | 13.4 | 144
Cc1ccc(Nc2ccc3c(c2)ncn3-c2ccc(C(C)O)c(-c3cn(CC4CC4)nc3C)n2)nn1 (stereo not drawn) [Example 266, 1-[2-[1-(Cyclopropylmethyl)-3-methyl-pyrazol-4-yl]-6-[5-[(6-methylpyridazin-3-yl)amino]benzimidazol-1-yl]-3-pyridyl]ethanol; formic acid] | 136 | 1 | 1.4
COc1cc2ncn(-c3ccc([C@H](C)O)c(-c4ccc(F)cc4OC)n3)c2cc1OC [Example 21, (S)-1-(6-(5,6-Dimethoxy-1H-benzo[d]imidazol-1-yl)-2-(4-fluoro-2-methoxyphenyl)pyridin-3-yl)ethan-1-ol] | 192 | 135 | 543
Cc1cc(C#N)nn1-c1nc(-n2cnc3cc(Nc4ccc(OC5COC5)nn4)ccc32)ccc1C(C)O (stereo not drawn) [Example 207, 1-[3-(1-Hydroxyethyl)-6-[5-[[6-(oxetan-3-yloxy)pyridazin-3-yl]amino]benzimidazol-1-yl]-2-pyridyl]-5-methyl-pyrazole-3-carbonitrile] | 27 | 3.7 | 2.6
Cc1cc(C#N)nn1-c1nc(-n2cnc3cc(Nc4ccc(OCCN5CCS(=O)(=O)CC5)nn4)ccc32)ccc1C(C)O (stereo not drawn) [Example 206, 1-[6-[5-[[6-[2-(1,1-Diketo-1,4-thiazinan-4-yl)ethoxy]pyridazin-3-yl]amino]benzimidazol-1-yl]-3-(1-hydroxyethyl)-2-pyridyl]-5-methyl-pyrazole-3-carbonitrile] | 72 | 4.5 | 5.3
Cc1ccc(Nc2cc3ncn(-c4ccc(C(C)O)c(-n5nc(C#N)cc5C)n4)c3cc2F)nn1 (stereo not drawn) [Example 93, 1-[6-[6-Fluoro-5-[(6-methylpyridazin-3-yl)amino]benzimidazol-1-yl]-3-(1-hydroxyethyl)-2-pyridyl]-5-methyl-pyrazole-3-carbonitrile] | 97 | 0.5 | 0.6
Cc1ccc(Nc2ccc3c(c2)ncn3-c2ccc(C(C)O)c(-c3ccc(O)cc3C#N)n2)nn1 (stereo not drawn) [Example 220, 5-Hydroxy-2-[3-(1-hydroxyethyl)-6-[5-[(6-methylpyridazin-3-yl)amino]benzimidazol-1-yl]-2-pyridyl]benzonitrile; formic acid] | 6740 | 154 | 46.2
COc1cc(C(F)F)nn1-c1nc(-n2cnc3ccc(Nc4ccc(C)nn4)cc32)ccc1C(C)O (stereo not drawn) [Example 397, 1-[2-[3-(difluoromethyl)-5-methoxy-pyrazol-1-yl]-6-[6-[(6-methylpyridazin-3-yl)amino]benzimidazol-1-yl]-3-pyridyl]ethanol] | 37 | 20.5 | 172
Cc1cc(C(=O)N(C)C)c(Nc2ccc3c(c2)ncn3-c2ccc(C(C)O)c(-n3nc(C#N)cc3C)n2)nn1 (stereo not drawn) [Example 219, 3-[[1-[6-(3-Cyano-5-methyl-pyrazol-1-yl)-5-(1-hydroxyethyl)-2-pyridyl]benzimidazol-5-yl]amino]-N,N,6-trimethyl-pyridazine-4-carboxamide] | 2200 | 6.8 | 4.2

Further molecules by falling IC50 (SIK1), results first:

IC50 (SIK1) [nM] | IC50 (SIK2) [nM] | IC50 (SIK3) [nM] | Compound
10800 | 2240 | 476 | Cc1cc(C#N)nn1-c1nc(-n2cnc3cc(CN4CCCCC4=O)ccc32)ccc1C(C)O (stereo not drawn) [Example 216, 1-[3-(1-Hydroxyethyl)-6-[5-[(2-oxo-1-piperidyl)methyl]benzimidazol-1-yl]-2-pyridyl]-5-methyl-pyrazole-3-carbonitrile]
7090 | 72.4 | 19.7 | Cc1ccc(Nc2ccc3c(c2)ncn3-c2ccc([C@@H](C)O)c(-n3nc(C(F)F)cc3C)n2)nn1 [Example 230, (1R)-1-[2-[3-(Difluoromethyl)-5-methyl-pyrazol-1-yl]-6-[5-[(6-methylpyridazin-3-yl)amino]benzimidazol-1-yl]-3-pyridyl]ethanol]
2150 | 320 | 405 | CC(O)c1ccc(-n2cnc3cc(OCCN4CCOCC4)ccc32)nc1Oc1ccccc1 (stereo not drawn) [Example 53, 1-[6-[5-(2-Morpholinoethoxy)benzimidazol-1-yl]-2-phenoxy-3-pyridyl]ethanol]
1620 | 47.1 | 9.6 | Cc1ccc(Nc2ccc3c(c2)ncn3-c2ccc(C(C)O)c(NCC3(C#N)CC3)n2)nn1 (stereo not drawn) [Example 116, 1-[[[3-(1-Hydroxyethyl)-6-[5-[(6-methylpyridazin-3-yl)amino]benzimidazol-1-yl]-2-pyridyl]amino]methyl]cyclopropanecarbonitrile; formic acid]
270 | 1.6 | 1.7 | COCCn1cc(-c2nc(-n3cnc4cc(Nc5ccc(C)nn5)ccc43)ccc2C(C)O)c(C)n1 (stereo not drawn) [Example 265, 1-[2-[1-(2-Methoxyethyl)-3-methyl-pyrazol-4-yl]-6-[5-[(6-methylpyridazin-3-yl)amino]benzimidazol-1-yl]-3-pyridyl]ethanol; formic acid]
245 | 0.9 | 1.7 | Cc1ccc(Nc2cc3ncn(-c4ccc(C(C)O)c(-c5cn(CC6CC6)nc5C)n4)c3cc2F)nn1 (stereo not drawn) [Example 356, 1-[2-[1-(cyclopropylmethyl)-3-methyl-pyrazol-4-yl]-6-[6-fluoro-5-[(6-methylpyridazin-3-yl)amino]benzimidazol-1-yl]-3-pyridyl]ethanol]
223 | 1.5 | 0.4 | Cc1ccc(Nc2ccc3c(c2)ncn3-c2ccc([C@H](C)O)c(-n3nc(C(F)F)cc3C)n2)nn1 [Example 229, (1S)-1-[2-[3-(Difluoromethyl)-5-methyl-pyrazol-1-yl]-6-[5-[(6-methylpyridazin-3-yl)amino]benzimidazol-1-yl]-3-pyridyl]ethanol]
173 | 1.8 | 0.9 | COc1cc(Cl)nnc1Nc1ccc2c(c1)ncn2-c1ccc(C(C)O)c(-n2nc(C#N)cc2C)n1 (stereo not drawn) [Example 241, 1-[6-[5-[(6-Chloro-4-methoxy-pyridazin-3-yl)amino]benzimidazol-1-yl]-3-(1-hydroxyethyl)-2-pyridyl]-5-methyl-pyrazole-3-carbonitrile]
49 | 47 | 606 | Cc1cc(C#N)nn1-c1nc(-n2cnc3ccc(OC4CCN(C5COC5)CC4)cc32)ccc1C(C)O (stereo not drawn) [Example 114, 1-[3-(1-Hydroxyethyl)-6-[6-[[1-(oxetan-3-yl)-4-piperidyl]oxy]benzimidazol-1-yl]-2-pyridyl]-5-methyl-pyrazole-3-carbonitrile]
6 | 0.3 | 0.7 | COc1cc2c(cc1Nc1ccc(C)nn1)ncn2-c1ccc(C(C)O)c(-n2nc(C#N)cc2C)n1 (stereo not drawn) [Example 185, 1-[3-(1-Hydroxyethyl)-6-[6-methoxy-5-[(6-methylpyridazin-3-yl)amino]benzimidazol-1-yl]-2-pyridyl]-5-methyl-pyrazole-3-carbonitrile]
